From patent US20250268801A1, “DRY CREAMS AND TOPICAL DELIVERY SYSTEMS” (UEA Enterprises Limited, priority 2021, published 2025)
Values after ≈ are worked out from the molar mass of the structure shown.

Tests used:
[1] = Drug solubility in loading solvent; assay type: physicochemical; conditions: sunflower oil, oil or lipid
Protocol: The maximum amount of metoprolol which can dissolve in the volume of ethanol in a 10% solution was precisely weighed out and dissolved in the ethanol—DCM in the HPMCAS-PVP polymer solution before it was electrospun. When coumarin (hydrophobic fluorescent dye) was added, the voltage was increased to 19.1 kv. […] Ketoconazole was dissolved in sunflower oil.

[2] = cited from earlier work

| SMILES | solubility [1] | solubility in ethanol [2] |
| --- | --- | --- |
| CC(=O)N1CCN(c2ccc(OCC3COC(Cn4ccnc4)(c4ccc(Cl)cc4Cl)O3)cc2)CC1 (centres unmarked) [Ketoconazole] | ~5800 µg/mL (≈ 10.9 mM) | – |
| COCCc1ccc(OCC(O)CNC(C)C)cc1 (centres unmarked) [Metoprolol] | – | 31000 µg/mL (≈ 116 mM) |
